Test results reported in patent US5276019A, “Inhibitors for replication of retroviruses and for the expression of oncogene products” (The United States of America as represented by the …, priority 1988, dated 1994).
Entries after “also recorded” stand apart in the source; their conditions may differ. Oligonucleotides are written 5' to 3', each unit as a sugar letter and its base; * is a phosphorothioate linkage, no mark a phosphodiester; rarer units and linkages stand in square brackets, end groups in braces. Plain capitals give the bases only. d = 2'-deoxy (DNA)

Columns and labels:
[1] = system: de novo HIV DNA synthesis; experiment: Southern blot analysis of de novo HIV DNA synthesis in ATH8 cells; format: cell-based
From the text: Target cells (1×10^7 ATH8 cells) were pretreated with or without S-dC28 at various concentrations for sixteen hours, then treated with Polynrene, exposed to HIV (500 virus particles per cell), resuspended, and cultured in the presence or absence of S-dC28. On days 4 and 7 following the exposure to the virus, high molecular weight DNA was extracted, digested with Asp718 (a Kpn I isoschizomer from Boehringer-Mannheim, Indianapolis, Ind.), and subjected to Southern blot analysis hybridized with a labelled insert of molecular clone of the env region of HTLV-III (BH10) containing a 1.3 Kb Bgl II fragment.
On days 4 and 7 following the exposure to the virus, a substantial amount of viral DNA was detected by Southern blot analysis without antiviral agents.
On day 4, shown in lanes A-E, and day 7, shown in lanes F-J, following exposure to the virus, high molecular weight DNA was extracted. Lanes A and F contain DNA from ATH8 cells that were exposed to the virus and not protected by S-dC28. Lanes B and G, C and H, D and I, contain DNA from ATH8 cells pretreated and cultured with 1 micromole, 5 micromoles, and 7 micromoles S-dC28, respectively. Lanes E and J contain DNA from ATH8 cells treated with 50 micromoles 2',3'-dideoxyadenonsine, and lane K contains DNA from ATH8 cells that was not exposed to the virus.

[2] = system: HTLV-IIIB virus (HIV) in ATH8 cells; experiment: HIV cytopathic effect inhibition in ATH8 cells; format: cell-based; conditions: for anti-HIV activity / protection against cytopathic effect: ATH8 cells
Protocol: Because it is possible that inter-assay variation may create an inappropriate comparison of antiviral activity among agents, experiments were performed simultaneously to make more precise comparisons.
After a number of days in culture, generally 7-10 days, either substantial cell death due to HIV infection (HIV cytopathic effect) or the protective effect of oligos against the cytopathicity of HIV was observed.

[3] = system: gamma-interferon; experiment: Induction of gamma-interferon in culture supernatant; format: cell-based
From the text: Another mechanism which should be considered is induction of interferon production such as that proposed for phophorothioate analogs of poly-r(I-C). […] Also, since there are no data to support the concept that phosphorothioate internucleotide linkages have a thiol character, and can thus form disulfides, the mechanism of action would likely be different from that proposed for antiviral polynucleotides having thiolated bases such as 5-mercapto-cytosine or -uracil.

[4] = system: p24 gag protein of HIV; experiment: HIV gag protein expression in chronically HIV-infected H9 cells (indirect immunofluorescence); format: cell-based; conditions: up to 25 micromoles, 120 hours
Protocol: The percentage of cells expressing p24 gag protein of HIV was determined by indirect immunofluorescence microscopy by using anti-HIV p24 murine monoclonal antibody.
Generally, it has been assumed that anti-sense sequences inhibit the expression of various genes by translation arrest, i.e. that they bind to mRNA and block its translation. In order to test this possibility, gag protein synthesis was analyzed in chronically HIV-infected and -producing H9 cells by indirect immunofluorescent assay under a microscope. […] Alternatively, the level of any translation arrest could have been below the threshold of detection by indirect immunofluorescent assay under a microscope. […] Therefore, one mechanism for the antiviral effect could depend on blocking viral replication perhaps prior to, or at the stage of, pro-viral DNA synthesis.

[5] = system: S1 nuclease; experiment: Nuclease susceptibility, S1 nuclease; format: in vitro ADME
From the text: (§1) Several oligodeoxynucleotides were studied with regard to DNase sensitivity, cf. Table 5. These include cytidine homopolymers, ODN-4 (an anti-message 38-mer complementary to the 3' region of the art/trs region of HIV BH10 clone), and myc-1 (a 15-mer complementary to the initiation codon region of the C-myc oncogene). The DNases employed were predominantly endonuclease S1, the exo- and endonuclease P1, and snake venom (SV) phosphodiesterase. The concentration of S1 nuclease was ten-fold higher ([…]) for reactions of olifo-dC, since both the normal and PS analog were degraded extremely slowly be this enzyme. S1 and P1 nuclease digestion proceeded at 2-45 times more slowly for the S-ODNs than for the normal oligomers, with the […] being somewhat more readily digested than the 28-mer.

[6] = system: P1 nuclease; experiment: Nuclease susceptibility, P1 nuclease; format: in vitro ADME
From the text: as §1

[7] = system: T4 molecule in T4 cells (H9 cells); experiment: HIV binding to T4 molecule in H9 cells (radiolabelled virus)
Protocol: (§2) The possibility that the S-ODN analogs may interfere with HIV binding to target cells was tested.

[8] = system: T4, HLA-DR, T8, T3, or Tac antigen on ATH8 cells; experiment: Surface antigens of ATH8 cells by fluorescent-activated cytofluorometry; format: cell-based; conditions: i micromole, sixteen hours
Protocol: as §2

[9] = Solubility; format: physicochemical; conditions: acetate salts
From the text: Oligodeoxynucleotides with blocks of phosphorothioates at the 3' or 5' ends were synthesized by automatically changing the oxidation cycle at the required point. […] Introduction of a small amount of ammonia vapor, not aqueous ammonia, by a Pasteur pipette solubilized all the solids. The yield determined from absorbance at lambda max was about 30%.

[10] = Stability in in vitro test media followed by 31P NMR; format: in vitro ADME
From the text: The phosphorothioate oligodeoxynucleotides of the present invention have suitable chemical characteristics, namely, the ability to hybridize with complementary DNA/mRNA under physiological conditions, and better solubility properties relative to methylphosphonates. Moreover, the thioesters are as soluble in biological media as the parent compounds.
Thus, it is believed that it is mainly the relative resistance of the phosphorothioate analogs to nucleases that preserves them relative to n-ODNs, and allows them to reach and remain at their target site. This was supported in relation to the media used in the in vitro test system by following the 31P NMR spectra of the n-ODN-1 and S-ODN-1 compounds as a function of time.

[11] = Stability in human serum; format: in vitro ADME; conditions: 31P NMR
[12] = system: HL60 cells; experiment: Inhibition of HL60 cell proliferation (cell count); format: cell-based
[13] = system: HL60 cells; experiment: DNA synthesis in HL60 cells (3H-thymidine incorporation); format: cell-based; conditions: FIG. 4, 50 uM, day 1
Protocol: To obtain the results shown in FIG. 4, nonsense or antisense S-ODNs were added at a final concentration of 50 uM on day 0 to cells seeded at 3×10^5/ml. DNA synthesis was determined on day 1 by incubating cells with 1 uCi 3H-thymidine for 4 hours, after which time 10% trichloroacetic acid was added and acid precipitatable radioactivity was trapped on Whatman glass fiber filters. The filters were subjected to liquid scintillation counting to determine levels of radioactivity.

## Nc1ncnc2c1ncn2[C@H]1CC[C@@H](CO)O1 [2',3'-dideoxyadenosine, reference compound]
[1]; 50 micromoles (lanes E, J), days 4 and 7
  2.7 Kb env-containing internal KPN I fragment of virus genome: detected only in lanes A and F
[1]; Human immunodeficiency virus 1, ATH-8, Southern blot, days 4 and 7, read-out: lowest concentration significantly inhibiting de novo synthesis of viral DNA
  minimal effective concentration: 1 µM

## Nc1ccn([C@H]2CC[C@@H](CO)O2)c(=O)n1 [2',3'-dideoxycytidine, reference compound]
[2]; 0.5 micromoles
  protection against the virus: complete antiviral activity

## (dC)n n = 14 [S-dC14]
[2]; 5 micromoles
  protection against the virus: only a moderate effect
[2]
  anti-HIV activity / protection against cytopathic effect: the most potent antiviral compound among those tested
[2]; listed as 14-mer oligo-dC
  anti-HIV activity / protection against cytopathic effect: substantial protection against HIV cytopathic effect
[3]
  induction of gamma-interferon: No induction of gamma-interferon

## (dC)n n = 28 [S-dC28]
[2]; 0.5 micromoles
  protection against the virus: complete protection against the virus; also recorded: complete antiviral activity
[2]; 3 micromoles
  inhibition of viral replication and protection of ATH8 cells: 100%
[2]
  anti-HIV activity / protection against cytopathic effect: the most consistent and durable antiviral effects; also recorded: one of the most potent analogs tested
[2]; in vitro
  therapeutic index (ratio of cytotoxic to effective concentration): comparable in vitro index to those of dideoxycytidine and dideoxyadenosine
[4]
  gag protein positivity: failed to reduce gag protein positivity; also recorded: did not inhibit gag protein positivity
[1]; 1, 5 and 7 micromoles S-dC28 (lanes B-D, G-I), days 4 and 7
  2.7 Kb env-containing internal KPN I fragment of virus genome: detected only in lanes A and F
[1]; Southern blot
  lowest concentration with complete inhibition of de novo synthesis of HIV DNA: 1 µmol
[1]; Southern blot, days 4 and 7
  lowest concentration significantly inhibiting de novo synthesis of viral DNA: 1 µM
[5]; oligo-dC, ten-fold higher S1 concentration
  Ratio t1/2 PSoligo/t1/2 POoligo: 2
[6]
  Ratio t1/2 PSoligo/t1/2 POoligo: 15
[7]
  inhibition of HIV binding to T4 molecule: No inhibition
[8]
  changes in T4, HLA-DR, T8, T3, or Tac antigen: no detectable changes
[9]
  solubility in 1M NaCl: extremely insoluble in 1M NaCl

## d-(Gs Gs As Gs As Cs As Gs Cs Gs As Cs Gs A) [S-ODN-2]
[2]
  anti-HIV activity / protection against cytopathic effect: protected against HIV

## d-(Ts Cs Gs Ts Cs Gs Cs Ts Gs Ts Cs Ts Cs C) [S-ODN-1]
[2]
  anti-HIV activity / protection against cytopathic effect: substantial activity against HIV; also recorded: protected against HIV
[10]; 10 days
  phosphorothioate bonds intact: still intact after 10 days
[10]; a week
  degradation: no significant degradation even after a week
[10]; after 10 days
  decomposition based on the total signal intensity: less than 5%

## dAACGTTGAGGGGCAT [O-myc-1, reference compound]
[11]
  half-life in 50% human serum: two to three

## dAACGTTGAGGGGCAT [S-myc-1]
[12]; 0.1 micro M, FIG. 3
  effect on cell proliferation: effective
[12]; HL60 cells
  concentration relative to that required for the normal oligomer: less than 1%
[12]; HL60 cells, listed as anti-sense sequence
  inhibition of cell proliferation (cell count): significant inhibition of cell proliferation
[12]; HL60 cells, listed as phosphorothioate oligodeoxynucleotide analogs of the same anti-sense sequence
  inhibition of cell proliferation (cell count): inhibit proliferation of HL60 cells
[13]
  inhibition of cell proliferation (3H-thymidine incorporation): significant inhibition of cell proliferation
[5]; ODN-4 and myc-1
  Ratio t1/2 PSoligo/t1/2 POoligo: 9
[6]
  Ratio t1/2 PSoligo/t1/2 POoligo: 4

## nonsense S-ODN: 5'-CTG AAG TGG CAT GAG; non-sense, same composition as anti-sense but in random sequence (dC*dT*dG*dA*dA*dG*dT*dG*dG*dC*dA*dT*dG*dA*dG) [reference compound]
[12]; HL60 cells
  inhibition of cell proliferation (cell count): not all nonsense S-ODN concentrations affected cell proliferation
[12]; HL60 cells, listed as non-sense sequence
  inhibition of cell proliferation (cell count): none of the controls used, namely, the non-sense sequence, has shown similar activity

B1: recombinant gamma-interferon: recombinant gamma-interferon (protein, UniProt P01579 24-161, looked up)
Interferon gamma: QDPYVKEAENLKKYFNAGHSDVADNGTLFLGILKNWKEESDRKIMQSQIVSFYFKLFKNFKDDQSIQKSVETIKEDMNVKFFNSNKKKRDDFEKLTNYSVTDLNVQRKAIHELIQVMAELSPAAKTGKRKRSQMLFRG
[2]; 1000 units added directly to cultures
  inhibition of cytopathic effect: did not inhibit the cytopathic effect
